Positions of bridges follow the written chain, without caps; N, C: chain ends. Non-standard residues stand in square brackets, D forms with d. Residues, ends and D or L forms follow the SMILES beside them. Thz = O=C(O)[C@@H]1CSCN1
Tests used:
[1] = In vivo acute food intake model (BioDAQ) in C57BL/6J male mice; settings: single subcutaneous dose 1 mg/kg, cumulative food intake
Method: The MC4R system is central to appetite regulation and agonists are known inhibit food intake. In order to screen compounds in a relevant in vivo model, efficacy was assessed by determining the effect of the compound on reducing food intake acutely in mice.
All animal protocols were approved by an Institutional Animal Care and Use Committee and Ethical Review Committee of Novo Nordisk. Animals were housed according to Novo Nordisk rodent housing standards, and were given ad libitum access to food and water under controlled lighting (12 h:12 h light/dark cycle; lights off 11:00-23:00), temperature (23±2° C.) and relative humidity (50±20%) conditions. For each acute food intake study C57BL/6J male mice (25-30 grams body weight) were acclimated for two weeks to the appropriate light cycle and to single-housing (one mouse per cage) in cages linked to a BioDAQ automated food intake system (Research Diets Inc., New Brunswick, N.J. USA). The animals were also acclimated to new food (Research Diets 12450B, 10% kcal fat) during this time.
The BioDAQ is a computer automated scientific instrument for Biological Data Acquisition of food intake in rodents and measures food intake from each cage every 15 minutes. A total of 32 animals can be accommodated in the system per study, therefore, animals were randomized into 4 groups of n=8 for each study. […] Animals were fasted ˜4 hr prior to dosing. Vehicle (10 mM phosphate; 140 mM sodium chloride) or compound was dosed at a volume of 10 ml per kg subcutaneously approximately 20 minutes prior to the start of the dark cycle (compound chem no. and dosages are indicated in table 2 below). After dosing, food intake was recorded for approximately 24 hours.
The inhibitory effect of compounds on food intake was generally well-correlated with in vitro binding affinity on the human MC4 receptor and with plasma stability of the compound. Most studies were conducted as dose response studies with vehicle and the compound at 3 doses (0.3, 1 and 3 mg/kg). Some studies were done for the purpose of dose-range finding, while others were done to comparatively assess the effect of 3 compounds at the same dose. Maximal effects on food intake occurred within the first 1-5 hours post-dose. The comparative effect of compounds across studies on food intake was assessed by normalizing measurements as % effect on cumulative food intake after a single subcutaneous dose, relative to vehicle. Results are reported in Table 2 as % effect on food intake at 3 hours post dose.

human MC4R = molecular target: T1, human MC4R (Homo sapiens, UniProt P32245); assay: Functional cAMP assay (CisBio HTRF) in BHK cells expressing human MC4R; type: cell-based
T1 construct: expressed in transfected cells
How it was run: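 Stably transfected BHK cells expressing human MC1R or MC4R; cAMP quantified by HTRF (cAMP-d2/cryptate) after 30 min compound stimulation at 25 °C in DMEM-based buffer with 1 mM IBMX. Compounds were prepared as 10-fold serial dilutions starting at 2 μM (working solution, 2× final). Readout after 1 h at 25 °C; non-linear regression.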

T1 sequence (P32245 whole entry): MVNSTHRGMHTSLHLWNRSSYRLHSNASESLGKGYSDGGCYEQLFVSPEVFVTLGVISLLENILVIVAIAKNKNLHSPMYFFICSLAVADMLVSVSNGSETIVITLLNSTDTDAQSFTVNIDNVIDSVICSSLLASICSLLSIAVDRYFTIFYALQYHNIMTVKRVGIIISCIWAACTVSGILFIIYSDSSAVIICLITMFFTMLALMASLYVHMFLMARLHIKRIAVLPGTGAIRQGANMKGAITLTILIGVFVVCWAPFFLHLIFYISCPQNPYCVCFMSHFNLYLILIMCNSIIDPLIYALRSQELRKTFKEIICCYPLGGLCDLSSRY

C[C@@H]1NC(=O)[C@H](CCCCN)NC(=O)[C@@H]2CSSC[C@H](NC(=O)[C@H](Cc3c[nH]c4ccccc34)NC(=O)[C@H](C)NC(=O)[C@@H](CCCCN)NC1=O)C(=O)N1CSC[C@H]1C(=O)N[C@@H](Cc1c[nH]cn1)C(=O)N[C@H](Cc1ccccc1)C(=O)N[C@@H](Cc1c[nH]cn1)C(=O)N[C@@H](Cc1c[nH]c3ccccc13)C(=O)N2 [Chem. 114, c[c[Cys-THAZ-His-D-Phe-His-Trp- Cys]-Lys-Ala-D-Lys-Ala-Trp]] (cyclo(AWC[Thz]H[dF]HWCKA[dK]); disulfide 3-9)
% Effect on food intake at 3 hours post dose, relative to vehicle [1]: −64 ± 6% | EC50 (human MC4R; BHK cells expressing human MC4R, '>' = highest dose used with no response, read-out: MC4R cAMP EC50): 0.04 nM | MC1R/MC4R cAMP EC50 ratio (human MC4R; MC1R cAMP EC50 divided by MC4R cAMP EC50): 2844
